melting point [°C] | SMILES
153 to 159 | O=[N+]([O-])c1cc(O)ccc1I
83 | Nc1cc(CO)ccn1
235 to 250 | COC(=O)C(C#N)=c1sc(=C(C#N)C(=O)OC)s1
89 to 94 | CC(C)(C)OC(=O)Nc1ccc(CN)cc1
99 to 105 | O=S(=O)(N(c1ccccc1)S(=O)(=O)C(F)(F)F)C(F)(F)F
120 to 123 | Cc1ccc(F)cc1NC(N)=S
143 to 147 | CC(=O)c1cc(O)cc(O)c1
33 | Fc1cc(Br)c(Br)cc1F
62.5 to 64 | O=C(CCl)Nc1cccc(C(F)(F)F)c1
70 to 73 | CN(C)S(=O)(=O)Oc1ccc(C#N)cc1
128 | CC(c1ncncc1F)C(O)(Cn1cncn1)c1ccc(F)cc1F (stereo unspecified)
-48.4 | Cc1cc[nH]c1
95 | CCOC(=O)/C(=C\c1ccccc1)c1ccccc1[N+](=O)[O-]
150 | CC(C)(C)c1ccc(C2CCC3(CC2)Cc2ccc(C(=O)Nc4ccccc4OCCCC(=O)O)cc2C3)cc1 (stereo unspecified)
80 | CCCN(CCC)c1c([N+](=O)[O-])cc(C)cc1[N+](=O)[O-]
191 to 193 | CC(=O)NC(Cc1ccc(Br)cc1)C(=O)O (stereo unspecified)
300 | O=C(O)c1cc(S(=O)(=O)F)c2ccccc2c1O
63 to 65 | O=S(=O)(Cl)c1cc(Br)c(Cl)s1
184 to 186 | CC(=O)NC1C(O)CC(O)(C(=O)O)OC1C(O)C(O)CO (stereo unspecified)
251 | O=C1Nc2ccc([N+](=O)[O-])cc2C1=O
197 to 199 | Nc1nc2ccccc2n1Cc1ccc(Cl)cc1
82 | COC(=O)c1ccc(C(=O)OC)c(F)c1

melting point [°C] | SMILES
194 | Cc1ccnc2c1ccc1c(C)ccnc12
71.5 | Nc1ccc(C=O)cc1
37 to 39 | O=C(Cl)c1ccccc1Oc1ccccc1
-119 | FC(F)(F)C(F)(F)C(F)(F)C(F)(C(F)(F)F)C(F)(F)F
125 | CCOC(=O)c1ccc2cn[nH]c2c1
49 | CC=C(c1ccccc1)c1ccccc1
184 | CN(C)c1ccc(C=Cc2ccc3ccccc3n2)cc1
148 to 149 | O=C(Nc1ccc(Cl)cc1)c1cccnc1Cl
227 | CC1=NNC(=N)Nc2c1c(=O)n(-c1ccccc1)c1ccccc21
153 | Cc1nccnc1O
76 | O=C1Cc2cc([N+](=O)[O-])ccc21
114 | CCOC(=O)Nc1ccc(NCc2ccc(F)cc2)nc1N
31 to 33 | Clc1ccc(OCCCI)cc1
194 | NCC1OC(OC2C(N)CC(N)C(O)C2OC2OC(CO)C(O)C2O)C(N)C(O)C1O (stereo unspecified)
87 to 90 | COC(=O)c1scc(C#N)c1-n1cccc1
169 | CNS(=O)(=O)Cc1ccc2[nH]cc(CCN(C)C)c2c1
134 | COc1ccc2cc([N+](=O)[O-])ccc2c1
226 | FC(F)(F)c1ccc(-c2nnn[nH]2)cc1
37.5 | CC1(c2ccccc2)CCOCO1 (stereo unspecified)
153 to 155 | O=S1(=O)CCc2ccccc2CC1
85 to 86 | Brc1cc(Br)c(Oc2ccccc2)c(Br)c1
159 to 160 | O=[N+]([O-])c1ccc(Oc2c(Cl)cc(S(=O)(=O)Cl)cc2Cl)c(Cl)c1

melting point [°C] | SMILES
188 | N#Cc1[nH]cnc2ncnc1-2
173 | COc1ccccc1-c1nnc2n1NC(c1ccccc1OC)S2 (stereo unspecified)
-1 | CCCCCCCC(=O)OC(=O)CCCCCCC
99 | O=C(C1=NOC2C(=O)N(c3ccc(O)cc3)C(=O)C12)c1ccccc1 (stereo unspecified)
127 | CCCCOc1ccc(-c2nnc3n2NC(c2ccco2)S3)cc1 (stereo unspecified)
80 to 84 | O=C1C2=C(CCCC2)C(=O)N1CO
104 to 106 | N#Cc1ccc2c(c1)OCCO2
244 | CC12CCC(O)CC1CCC1C2C(O)CC2(C)C1CCC2(O)C(=O)CO (stereo unspecified)
179 | NC(=O)c1cc([N+](=O)[O-])ccc1Cl
300 | O=C(O)C1=CC(=C(c2ccc(O)c(C(=O)O)c2)c2ccc(O)c(C(=O)O)c2)C=CC1=O
114 to 117 | CC(C)(C)C(CCC(=O)O)CC(=O)O (stereo unspecified)
129 to 135 | C=C(C)C1CC=C(C(=O)O)CC1 (stereo unspecified)
72 to 73 | O=C1c2ccccc2C(=O)N1CCOCCCl
118 | C(=Cc1ccccn1)c1ccccn1
283 to 284 | O=C1C(=CC2C(=O)N(c3ccccc3)N=C2c2ccc([N+](=O)[O-])cc2)C(c2ccc([N+](=O)[O-])cc2)=NN1c1ccccc1 (stereo unspecified)
85 | C=CCNC(N)=O
69 | Cc1nc2cc(Cl)ccc2s1
48 to 50 | O=C1NC2CCCCC12 (stereo unspecified)
130 | COC(=O)COC(=O)c1ccc2c(O)c(C(=O)OC)oc2c1
41 | c1ccc(C(CCN2CCCCC2)c2ccccc2)cc1
62 | CC(=O)Oc1ccc(O)cc1
34.5 | CCC1(O)CCCCC1

melting point [°C] | SMILES
164 | CC1(C)C2CC3C(c4ccccc4)(C2=C(c2ccccc2)c2ccccc2)C31C (stereo unspecified)
87.5 | CCCC(C)(C)C(=O)Nc1ccc(Cl)cc1
73.5 | Cc1cnc2ccccc2c1C
282 to 284 | O=C(Nc1nnc(-c2ccc(Cl)cc2)o1)c1ccc(F)cc1
-27.5 | C=CCCCCCCCCC(=O)OC
186 | O=C1C(c2ccccc2)=[N+]([O-])c2ccccc21
225 | N#C/C(=N/Nc1ccc(F)cc1)c1nc(-c2ccc(Cl)cc2)cs1
92 | CC(=O)NC(Cc1ccc2c(c1)OCO2)C(=O)O (stereo unspecified)
296 | N#Cc1ccc(C(Cl)=Cc2ccc(C=C(Cl)c3ccc(C#N)cc3[N+](=O)[O-])cc2)c([N+](=O)[O-])c1
219 | Clc1cc(Cl)c2oc3c(Cl)c(Cl)c(Cl)cc3c2c1
240 to 243 | Nc1nc(=O)[nH]cc1Br
8.5 | O=c1cccco1
226 | COc1ccccc1/C=C(\C#N)c1nc2ccccc2n1C
254 | c1ccc2c(c1)C1c3ccccc3C2c2ccccc21
124 | CC(C)Oc1cccc(OC(C)C)c1-c1ccccc1P(C1CCCCC1)C1CCCCC1
123 | Cn1c(=O)on(-c2ccc(Cl)c(Cl)c2)c1=O
316 | O=C1NC(=S)SC1=Cc1cccc(C=C2SC(=S)NC2=O)c1
54 | C1CCCCCCCCCCCCC1
166 to 168 | Cc1onc(-c2c(Cl)cccc2Cl)c1C(N)=O
102 to 103 | CCOC(=O)C(C#N)=NNc1ccccc1[N+](=O)[O-]
-90 | CCOC(CC(OCC)OCC)OCC
69 | Cc1ccc(F)c(CO)c1Cl

melting point [°C] | SMILES
44 | COC(=O)C1(C)CCC(CCc2ccccc2)C1(C)C (stereo unspecified)
119 | COc1cccc2c(=O)c(=O)c12
196 | O=C(O)COc1cccc2ccccc12
116 | O=S(=O)(c1ccccc1)c1ccsc1
201 to 202 | C/C(=N\CCO)c1c(O)c2ccccc2n(-c2ccccc2)c1=O
205 | NC(=S)NN=C1C2CCCC1C1(O)CCCCC1C2c1ccccc1 (stereo unspecified)
210 to 213 | NC(=S)Nc1ccc(Cl)c(Cl)c1
96 to 97 | N#Cc1cc(Cl)nc(Cl)c1
49 to 52 | Oc1c(Cl)cc(F)cc1Cl
153 | COc1cc(C[N+](=O)[O-])ccc1OCc1ccccc1
119 to 121 | COC(=O)c1ccc(N2CCCC2)nc1
180 | Nc1ccc2ccccc2c1S(=O)(=O)O
189 | CCOC(=O)c1nn(-c2ccc(C)cc2)c(C)c1C(=O)c1noc(-c2ccc([N+](=O)[O-])cc2)c1S(=O)(=O)c1ccccc1
80 to 85 | OC1(Cc2ccccc2)CCNCC1
40 to 45 | CCc1c(C)n[nH]c1C
87 | CCNc1nc(NC(C)CC)nc(OC)n1 (stereo unspecified)
48.5 | OCC(O)CI (stereo unspecified)
98 to 100 | CC(C)c1ccccc1OS(=O)(=O)c1ccc([N+](=O)[O-])cc1
125 | O=C(/C(=N\Nc1cccc(O)c1)S(=O)(=O)c1ccccc1)c1ccc(Cl)cc1

SMILES | melting point [°C]
CC(C)(C(=O)O)C1=CCC2(C)C(CCC3C4CCC(O)C4(C)CCC32)C1 (stereo unspecified) | 264
CN(C)c1ccc2c(C(F)(F)F)cc(=O)oc2c1 | 147 to 149
N#CCc1c[nH]c2ccccc12 | 36
C=CCN(CC=C)c1c(C)cc(OC(=O)NC)cc1C | 67
c1ccc(-c2cccc(-c3ccccc3)c2)cc1 | 87
N#CCc1ccccc1C#N | 73 to 79
Oc1ccc2c(c1)C13CCCCC1(O)C(C2)N(CC1CCC1)CC3 (stereo unspecified) | 216
Clc1ccc(Oc2ccccc2)cc1 | -8
CCc1nn(C)c(C(=O)NCc2ccc(C(C)(C)C)cc2)c1Cl | 65
CCCC(C)(COC(N)=O)COC(=O)NC(C)C (stereo unspecified) | 92
Cc1c(C)c([N+](=O)[O-])c(C)c(C)c1[N+](=O)[O-] | 212
C#CC(C)(CC)OC(N)=O (stereo unspecified) | 55.8
CC12CCC3C(C(=O)CC4CC(O)(C(Cl)(Cl)Cl)CCC43C)C1CCC2=O (stereo unspecified) | 248 to 254
COc1cc(CC#N)cc(OC)c1OC | 77
CN1Cc2c(ccc3c2OCO3)C2C(O)Cc3cc4c(cc3C21)OCO4 (stereo unspecified) | 136
NCCc1ccc(O)cc1 | 164
O=[N+]([O-])c1ccc(CBr)cc1 | 99
O=C1NC(=O)C(=NNc2cccc([N+](=O)[O-])c2)C(=O)N1 | 270
CNC(=O)Oc1ccc2c(c1)C1(C)CCN(C)OC1N2C (stereo unspecified) | 129

— a melting point compilation (Tetko et al.)
